Usually EC50 stands for the concentration at which the effect is half-maximal. The low end stands for a more potent agent, the high end for a less potent agent.

The test concerns the target T1, Orexin receptor type 2 (Homo sapiens, UniProt O43614).
T1 sequence (O43614 whole entry): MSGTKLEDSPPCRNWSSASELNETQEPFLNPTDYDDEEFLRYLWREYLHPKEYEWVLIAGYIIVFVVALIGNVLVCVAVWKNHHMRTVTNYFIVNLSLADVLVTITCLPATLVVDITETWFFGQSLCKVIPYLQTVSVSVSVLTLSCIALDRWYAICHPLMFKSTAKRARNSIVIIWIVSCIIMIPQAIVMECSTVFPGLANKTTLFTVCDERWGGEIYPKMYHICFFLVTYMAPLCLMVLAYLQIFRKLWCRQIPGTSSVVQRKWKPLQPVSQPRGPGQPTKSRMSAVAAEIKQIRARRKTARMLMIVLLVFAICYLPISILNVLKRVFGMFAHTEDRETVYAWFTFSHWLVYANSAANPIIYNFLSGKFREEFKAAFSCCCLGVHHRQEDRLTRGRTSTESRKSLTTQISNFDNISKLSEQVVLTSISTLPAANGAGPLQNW
Nature of the test: Agonist activity at human OX2R expressed in CHO cells. The class given is functional, cell-based.

As to `CCN(C(=O)N[C@@H](C1CCCC(F)(F)C1)C(F)(F)F)[C@H](C)c1cccc(-c2cn3ccnc3c(OC)n2)c1` (stereo partly specified), the EC50 came out at 0.9 nM.

Values taken from ChEMBL document CHEMBL5120977, “Orexin Receptor Agonists as Possible Treatment for Narcolepsy and Idiopathic Hypersomnia” (ACS Med Chem Lett, 2022).
